Here are results for seven compounds from patent publication US7745492B2, “Carboxamido opioid compounds” (Janssen Pharmaceutical, priority 2004, dated 2010).

Where only a bound is given, the exact number is not on record here.

Assay [1] addresses T1, mu opioid receptor (Rattus norvegicus, UniProt P33535).
T1 construct: from tissue; host or cells: rat forebrain membrane (particulate) preparation
The assay can be described thus: Rat brain mu opioid receptor binding assay ([3H]DAMGO). Particulars: rat forebrain membranes, 25° C. The protocol:
(§1) Rat Brain Mu and Delta Opioid Receptor Binding Assay
(§2) Male, Wistar rats (150-250 g, VAF, Charles River, Kingston, N.Y.) were killed by cervical dislocation and their brains removed and placed immediately in ice cold Tris HCl buffer (50 mM, pH 7.4). The forebrains were separated from the remainder of the brain by a coronal transection, beginning dorsally at the colliculi and passing ventrally through the midbrain-pontine junction. After dissection, the forebrains were homogenized in Tris buffer in a Teflon®-glass homogenizer. The homogenate was diluted to a concentration of 1 g of forebrain tissue per 100 mL Tris buffer and centrifuged at 39,000×G for 10 min. The pellet was resuspended in the same volume of Tris buffer with several brief pulses from a Polytron homogenizer. This particulate preparation was used for the opioid receptor binding assays. Following incubation with the mu opioid selective peptide ligand [^3H]DAMGO or the delta opioid selective ligand [^3H]DPDPE at 25° C., the tube contents were filtered through Whatman GF/B filter sheets on a Brandel cell harvester. The tubes and filters were rinsed three times with 4 mL of 10 mM HEPES (pH 7.4) and the radioactivity associated with the filter circles determined using Formula 989 scintillation fluid (New England Nuclear, Boston, Mass.) in a scintillation counter.
(§3) The data were used to calculate a Ki value, using GraphPad Prism.

Assay [2] deals with T2, delta opioid receptor (Rattus norvegicus, UniProt P33533).
T2 construct: from tissue; host or cells: rat forebrain membrane (particulate) preparation
T2 sequence (P33533 whole entry): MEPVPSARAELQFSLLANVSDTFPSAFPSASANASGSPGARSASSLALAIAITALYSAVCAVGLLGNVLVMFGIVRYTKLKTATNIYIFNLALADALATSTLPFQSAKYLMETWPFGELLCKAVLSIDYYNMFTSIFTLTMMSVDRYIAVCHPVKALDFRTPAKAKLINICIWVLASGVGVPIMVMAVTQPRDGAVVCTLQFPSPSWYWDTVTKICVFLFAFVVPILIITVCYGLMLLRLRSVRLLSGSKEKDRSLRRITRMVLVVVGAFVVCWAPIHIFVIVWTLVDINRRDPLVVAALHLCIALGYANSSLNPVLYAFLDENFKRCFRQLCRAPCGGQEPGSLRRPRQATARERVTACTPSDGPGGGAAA
As to the kind of experiment: Rat brain delta opioid receptor binding assay ([3H]DPDPE). Particulars: rat forebrain membranes, 25° C. As for the experimental part:
as §1
as §2, with “Following incubation with the mu opioid selective peptide ligand [^3H]DAMGO or the delta opioid selective ligand [^3H]DPDPE at 25° C., the tube contents were filtered through Whatman GF/B filter sheets on a Brandel cell harvester.” left out
as §3

The test system of assay [3] is spinal nerve ligated rats. The assay can be described thus: Investigation of tolerance development to antiallodynic effect. The assay is classed as in vivo, rat. Particulars: dosing for five days, evaluated days one and five. The protocol:
Investigation of Tolerance Development
The development of tolerance to the analgesic effect of mu opioid compounds is well known. The development of tolerance to the antiallodynic effect of the Compound 3 was investigated by administering the compound to spinal nerve ligated rats for five days. The antiallodynic effect of the compound was evaluated on days one and five.

The target in assay [4] is T3, Human mu opioid (Homo sapiens, UniProt P35372).
T3 construct: host or cells: CHO cell membranes
T3 sequence (P35372 whole entry): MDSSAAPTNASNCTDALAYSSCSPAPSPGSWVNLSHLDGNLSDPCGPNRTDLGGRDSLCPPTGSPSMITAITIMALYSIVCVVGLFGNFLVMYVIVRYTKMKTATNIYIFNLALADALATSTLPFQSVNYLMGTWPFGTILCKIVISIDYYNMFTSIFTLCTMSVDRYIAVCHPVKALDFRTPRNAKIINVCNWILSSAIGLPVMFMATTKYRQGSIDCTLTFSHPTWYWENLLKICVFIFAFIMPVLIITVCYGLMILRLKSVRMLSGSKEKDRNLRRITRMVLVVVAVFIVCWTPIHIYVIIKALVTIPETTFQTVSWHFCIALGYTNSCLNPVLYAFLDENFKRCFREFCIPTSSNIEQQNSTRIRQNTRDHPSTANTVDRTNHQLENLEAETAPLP
The assay can be described thus: [35S]GTPγS binding assay in human mu opioid-CHO cell membranes. The assay is classed as biochemical. As for the experimental part: [^35S]GTPγS Binding Assay in Human mu opioid-CHO Cell Membranes
Human mu-CHO cell membranes were purchased from Receptor Biology, Inc. (Baltimore, Md.). About 10 mg/ml of membrane protein was suspended in 10 mM TRIS-HCl, pH 7.2, 2 mM EDTA, 10% sucrose.
Membranes were maintained at 4-8° C. 1 ml of membranes was added into 15 ml cold assay buffer, containing 50 mM HEPES, pH 7.6, 5 mM MgCl2, 100 mM NaCl, 1 mM DTT and 1 mM EDTA. The membrane suspension was homogenized with a Polytron 2 times and centrifuged at 3000 rpm for 10 min. The supernatant was then centrifuged at 18,000 rpm for 20 min. The pellet was resuspended in 10 ml assay buffer with a Polytron.
The pellet membranes (20 μg/ml) were preincubated with Scintillation Proximity Assay beads (SPA, 10 mg/ml) at 25° C. for 45 min in the assay buffer. The SPA beads (5 mg/ml) coupled with membranes (10 μg/ml) were then incubated with 0.5 nM [^35S]GTPγS in the same HEPES buffer containing 50 μM GDP in total volume of 200 μl. A range of concentrations of receptor agonists were used to stimulate [^35S]GTPγS binding. The basal binding was tested in the absence of agonist and non-specific binding was tested in the presence of 10 μM unlabeled GTPγS. Radioactivity was quantified on a Packard TopCount.
Data were Calculated as Follows: % of basal=(stimulated−non-specific)*100/(basal−non specific) % Inhibition=(% Basal of 1 μM DAMGO−% Basal of compound)*100/(% Basal of 1 μM DAMGO−100)
(§4) EC50 values were calculated using the Prism program.
(In general: GTPγS resists hydrolysis and so accumulates on activated G proteins.)

For assay [5], the system named is male Sprague-Dawley rats. The assay can be described thus: Rat CFA radiant heat model of inflammatory pain. The assay is classed as in vivo. The conditions noted are these: dosed orally 24 h after intraplantar CFA. As for the experimental part: Rat CFA Radiant Heat Model of Inflammatory Pain
Intraplantar injection of Complete Freund's Adjuvant (CFA) in rodents results in a strong, long-lasting inflammatory reaction, characterized by a chronic and pronounced hyperalgesia to both thermal and mechanical stimuli. These effects peak between 24-72 h following injection, and can last for several days to a few weeks. To assess the ability of compounds to reverse thermal hyperalgesia, male Sprague-Dawley rats (200-350 g) were given an intraplantar injection of CFA (1:1 CFA:saline, 100 μL) into their left hindpaw. Following a 24-h incubation period, response latencies on the Radiant Heat Paw Stimulator (RH) were obtained and compared to baseline (pre-CFA) latencies. The RH device automatically registered lifting of the paw from the surface of the glass. […] Following the post CFA latency assessment, rats were dosed orally (2.5 mL/kg) with test compound or vehicle (hydroxypropylmethylcellulose, HPMC). Percent reversal of hyperalgesia was calculated for each animal as (Treatment Response−postCFA Response)/(preCFA Response−postCFA Response)×100. Therefore, a return to normal pre-CFA thresholds was defined as 100% efficacy, whereas no change from post-CFA thresholds was 0% efficacy. Average % reversal of hyperalgesia was then calculated for each treatment group (n=6-8 rats/group). […]

The subject of assay [6] is Male Sprague Dawley rats. The assay can be described thus: Spinal nerve ligation (SNL) model of neuropathic pain, mechanical allodynia (Von Frey). The assay is classed as in vivo. The conditions noted are these: rat. The protocol:
Spinal Nerve Ligation (SNL) Model of Neuropathic Pain
Male Sprague Dawley rats weighing 145 to 165 g (approximately 6 weeks of age) were obtained from Harlan (Indianapolis, Ind.). Food and water were provided ad lib and a 12 h light and 12 h dark cycle were maintained. Animals were group housed under specific pathogen-free, barrier maintained environment and were allowed to acclimate for no less than 1 week. Following surgery, animals were housed individually in solid bottom polycarbonate cages with automatic watering devices at 22° C. and a relative humidity of 60%. All animals received Harland Tekland Diet # 8604.
Anesthesia was induced using isoflurane (IsoVet™) inhalant in an induction chamber (3-5% in 2 L/min of O2). Once recumbent, the animal was removed and placed into a nose cone which delivered inhalant isoflurane (0.5-2.5% at 2 L/min Of O2). The dorsal pelvic area was shaved and scrubbed aseptically with chlorhexidine scrub, 70% alcohol, and a 5% chlorhexidine solution. The animal was held in ventral recumbency on a heating pad, and the surgical procedure described by Kim and Chung (1992) was performed. The left paraspinal muscles were separated from the spinous processes at the level of Lumbar 4 to Sacral 2 (L4-S2). Once the musculature was retracted, the L6 transverse process was removed using a small rongeur. L4 and L5 spinal nerves could then be visualized. L5 was then isolated and ligated using 6-0 silk suture material. Warm saline and a dose of long-acting antibiotic was administered immediately post-op before recovery form anesthesia.
At least one week following surgery, animals were individually placed in a Lucite testing chamber with a wire mesh bottom. Mechanical (tactile) allodynia was measured by recording the pressure at which the affected paw was withdrawn from graded stimuli (Von Frey hairs ranging from 4.0 to 148.1 mN equivalent to 0.25 to 15 g of pressure) applied to the plantar surface of the paw (between the footpads) according to the procedure of Chaplan et. al (1994) in order to calculate paw withdrawal threshold (PWT). Normal rats can withstand at least 15 g of pressure without responding. SNL rats can respond to as little as 0.25 g of pressure. Rats were included in this study only if their PWT was below 4.0 g.
Animals were used for compound testing between 2 weeks and 8 weeks post-operatively. Animals were always pre-tested for baseline withdrawal threshold on the day of testing. Following a 16 h fast, PWT was evaluated at 30 min, 1 h, 2 h, and 4 h post-dosing. Dose-response studies were conducted at the time of peak effect. Studies were conducted in a blinded manner.
Data were normalized and results were presented as % MPE (maximum possible effect) of the drug.

Assay [7] addresses T4, Delta opioid (Mus musculus, UniProt P32300).
T4 construct: NG108-15 cell membranes were purchased from Applied Cell Sciences (Rockville, Md.); host or cells: NG108-15 cell membranes
The assay can be described thus: [35S]GTPγS binding assay in NG108-15 cell membrane. The assay is classed as biochemical. The conditions noted are these: NG108-15 cell membranes. As for the experimental part: [^35S]GTPγS Binding Assay in NG108-15 Cell Membrane
NG108-15 cell membranes were purchased from Applied Cell Sciences (Rockville, Md.). An 8 mg/mL portion of membrane protein was suspended in 10 mM TRIS-HCl, pH 7.2, 2 mM EDTA, 10% sucrose.
Membranes were maintained at 4-8° C. A 1 mL portion of membranes was added into 10 mL cold assay buffer, containing 50 mM Tris, pH 7.6, 5 mM MgCl2, 100 mM NaCl, 1 mM DTT and 1 mM EGTA. The membrane suspension was homogenized with a Polytron 2 times and centrifuged at 3000 rpm for 10 min. The supernatant was then centrifuged at 18,000 rpm for 20 min. The pellet was resuspended in 10 ml assay buffer using a Polytron.
The pellet membranes (75 μg/ml) were preincubated with SPA beads (10 mg/ml) at 25° C. for 45 min in the assay buffer. The SPA beads (5 mg/ml) coupled with membranes (37.5 μg/ml) were then incubated with 0.1 nM [^35S] GTPγS in the same Tris buffer containing 100 μM GDP in total volume of 200 μl. A range of concentrations of receptor agonists was used to stimulate [^35S] GTPγS binding. The basal binding was tested in the absence of agonist and non-specific binding was tested in the presence of 10 μM unlabeled GTPγS. The radioactivity was quantified on a Packard TopCount.
Calculations were performed as follows: % of Basal=(stimulated−non specific)*100/(basal−non specific).
as §4

T1 sequence (P33535 whole entry): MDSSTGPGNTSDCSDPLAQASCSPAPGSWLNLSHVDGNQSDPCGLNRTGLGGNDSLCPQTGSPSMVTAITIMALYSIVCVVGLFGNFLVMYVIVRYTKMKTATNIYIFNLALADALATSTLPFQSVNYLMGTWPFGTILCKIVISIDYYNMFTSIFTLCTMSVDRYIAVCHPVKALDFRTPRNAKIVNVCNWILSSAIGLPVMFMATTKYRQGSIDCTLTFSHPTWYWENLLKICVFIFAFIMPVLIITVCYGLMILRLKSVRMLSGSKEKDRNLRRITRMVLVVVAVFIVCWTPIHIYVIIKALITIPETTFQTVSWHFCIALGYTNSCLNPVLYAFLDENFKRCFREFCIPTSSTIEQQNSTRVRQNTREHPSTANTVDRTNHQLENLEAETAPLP
T4 sequence (P32300 whole entry): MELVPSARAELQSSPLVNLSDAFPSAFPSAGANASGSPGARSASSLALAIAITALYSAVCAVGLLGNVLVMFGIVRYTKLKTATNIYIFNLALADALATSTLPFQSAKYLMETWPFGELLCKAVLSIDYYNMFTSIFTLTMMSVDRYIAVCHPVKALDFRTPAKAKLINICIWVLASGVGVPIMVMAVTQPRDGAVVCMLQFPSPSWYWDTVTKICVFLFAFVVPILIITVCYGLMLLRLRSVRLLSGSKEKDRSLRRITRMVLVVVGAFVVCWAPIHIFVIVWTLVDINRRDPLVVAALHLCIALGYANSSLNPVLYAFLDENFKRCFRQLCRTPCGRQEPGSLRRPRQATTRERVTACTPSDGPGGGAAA

Consider `CN(C)C[C@@H]1CCCC[C@]1(O)c1cccc(C(N)=O)c1` (racemic) [Cpd 1, 3-[(1-RS, 2-SR)-2-[(Dimethylamino)methyl]-1-hydroxycyclohexyl]-benzamide], for which the Ki (usually the dissociation constant of the complex between target and ligand, obtained from inhibition or displacement) in assay [1] was determined as 1.39 µM; in assay [2] it was 9.87 µM.
Take `CN1CC[C@]23c4c5ccc(O)c4O[C@H]2[C@@H](O)C=C[C@H]3[C@H]1C5` [morphine, reference compound]: in assay [3], the “Development of tolerance to the antiallodynic effect” value was “little or no antiallodynic effect remaining after five days of dosing”.
`CN(C)C[C@@H]1CCCC[C@@]1(O)c1cccc(C(N)=O)c1` (single isomer, unassigned) [Cpd 4]: the Ki in assay [1] is 0.828 µM; in assay [2], over 10 µM. Also, in assay [4], the EC50 – broadly, the concentration at which the effect is half-maximal – was determined as 4.82 µM. In assay [4], the “Mu opioid GTPγS relative efficacy” value is given as 41%. In addition, the “Antihyperalgesic effect (reversal of thermal hyperalgesia)” value in assay [5] is “antihyperalgesic”. Also, the “MPE in spinal nerve ligation model” value in assay [6] (30 mg/kg, p.o.) was found to be 39%; in assay [6] (100 mg/kg, p.o.) it was 95%.
For `CN(C)C[C@H]1CCCC[C@]1(O)c1cccc(C(N)=O)c1` (racemic) [Cpd 2, 3-[(1-RS, 2-RS)-[(2-Dimethylamino)methyl]-1-hydroxycyclohexyl]-benzamide], the Ki in assay [1] turned out to be 0.0294 µM; in assay [2], 2.47 µM. The “Mu opioid GTPγS (result in words)” value in assay [4] is “Agonist”. In addition, a half-maximal response in assay [7] (EC50) required 5.63 µM. Also, the “MPE in spinal nerve ligation model” value in assay [6] (3 mg/kg, i.v.) worked out at 87%; in assay [6] (30 mg/kg, p.o.) it was 88%.
As for `CNC(=O)c1cccc([C@@]2(O)CCCC[C@@H]2CN(C)C)c1` (racemic) [Cpd 7, 3-[(1-RS, 2-RS)-2-[(Dimethylamino)methyl]-1-hydroxycyclohexyl]-N-methylbenzamide], the Ki in assay [1] was 2.12 µM; in assay [2] it was over 10 µM.
For `CCN(CC)C(=O)c1cccc([C@@]2(O)CCCC[C@@H]2CN(C)C)c1` (racemic) [Cpd 5, 3-[(1-RS, 2-RS)-2-[(dimethylamino)methyl]-1-hydroxycyclohexyl]-N,N-diethyl-benzamide], the Ki in assay [1] and in assay [2] was over 10 µM in each case.
For `CN(C)C[C@H]1CCCC[C@]1(O)c1cccc(C(=O)NC2CC2)c1` (racemic) [Cpd 6, N-Cyclopropyl-3-[(1-RS, 2-RS)-2-[(dimethylamino)methyl]-1-hydroxycyclohexyl]-benzamide], the Ki in assay [1] was 5.19 µM; in assay [2], over 10 µM.
